Measured values published in patent publication US4680382A, “Analogues of actinomycin D” (priority 1986, dated 1987).
*1 amine or outer side, *2 acyl side, *3 side chain or, on linkers, in order; H or OH if unused. Where a SMILES comes first, the peptide text is derived from it. Bridges are numbered along the chain shown (N, C = ends). Roman numbers before positions name the chains, in order. [ ]: non-standard residue; d: D form. Actinocin(9to1) = Cc1c2oc3c(C)ccc(C(=O)[*:1])c3nc-2c(C(=O)[*:2])c(N)c1=O; NMeV = CN[C@H](C(=O)O)C(C)C; Sar = CNCC(=O)O

Tests used:
[1] = Metabolism of tritiated drugs by rat liver microsomes with NADPH-generating system; assay type: in vitro ADME; conditions: for Percent isolated: unconverted: 37° C.
Protocol: A method of using tumor cell sonicates was developed to study the metabolism of the analogues of AMD. By use of sonicated cells, the dilution effects that would occur if flasks of cultured cells were used are avoided. Although the cells are disrupted by this method, their enzyme systems appear to remain active. Large numbers of tumor cells (P388 murine leukemia) were sonicated in Earle's balanced salt solution (EBSS) and were incubated with tritiated AMD and its analogues 7a and 9a (Table II) for 16 hr. In another experiment, the analogues were treated with rat hepatic microsomes at 37° C. for 6 hr in the presence of a NADPH-generating system. The metabolic products were isolated and identified with the following results (Table II). […] In the microsomes, the major metabolites were in unconjugated forms; in the tumor cell homogenates, the major identified metabolites were glucuronide and sulfate conjugated forms. It should be pointed out that in these metabolic experiments, the identification of these glucuronide and/or sulfate conjugates was made only on the basis of the disappearance of the peaks from the HPLC chromatograms upon treatment with deconjugating enzymes glucarase.
The incubation mixture consisted of 500 μg of microsomal protein 1.6 mM NADP^+, 16 mM glucose 6-phosphate, 10.1 U of glucose-6-phosphate dehydrogenase, 12 mM MgCl2, 10 mM sodium phosphate-potassium phosphate (pH 7.4) and 0.4-0.8 mM of tritiated drugs (including AMD) in a final volume of 5.0 mL. The mixtures were incubated at 37° C. for 6 hr, after which the reaction was stopped by chilling at 0° C. The chilled mixtures were filtered by centrifugation in tubes containing centriflow membrane cones (Amicon, 1053, molecular weight cut-off 25000). The filtrates were adjusted to pH 5.0 before extraction with water-saturated ethyl acetate (step A).
Equal aliquots of the aqueous layer (step A) were treated either with equal volumes of glucarase (5 mg/mL) in 0.05M acetate buffer, pH 5.0, overnight at 37° C. under nitrogen in a shaking water bath or with buffer alone (step B). The aqueous fractions from step B were mixed with an extract of the Amicon cone-retained material. The metabolites at each step were separated by HPLC (Table II). For extraction of the high molecular weight protein conjugates and other tissue-associated materials, the cones were soaked in 0.1N NaOH solution overnight at 0° C. and were processed as in the preceding section before gel filtration. A Sephacryl S-200 superfine column, 1.0× 60 cm, was made in 6M guanidine hydrochloride, pH 5.0, and the lyophilized material in minimum water, pH 7.0, was added to the top of the column and eluted overnight with 6M guanidine hydrochloride, pH 5.0, at a flow rate of 2 cm/hr. A 2% solution of blue dextran 2000 (100 μL, Pharmacia) was added to the column for calibration. Fractions were collected, and the distribution of the material in the fractions was determined by liquid scintillation counting. […] For assay of metabolites, a Varian Moden 5020 gradient liquid chromatograph equipped with a CD-111L chromatography data system was used.

[2] = system: P388 lymphocytic leukemia; assay: In vivo antitumor activity against P388 leukemia; set-up: species or system BDF1 mice; conditions: for surv (surviving mice/total mice at 60 days) / % ILS / MST (range): P388, at optimal dose; for % ILS: 100(T/C - 1); for MST (range): control 11.0 (9-12); for optimal dose: P388, ip, days 1, 5 and 9, optimal nontoxic dose
Protocol: The analogues were tested for their antitumor activities in P388 lymphocytic leukemia in male BDF1 mice. The tumor was implanted intraperitoneally (ip) with 10^6 cells. The drugs were also administered ip once daily on days 1, 5 and 9, beginning 1 day after tumor transplantation. Analogues were tested over a range of doses, but only the optimal nontoxic doses are listed.
^a 10^6 P388 cells implanted ip on day 0 into groups of eight
BDF1 male mice. Drugs administered ip. MST (range), median survival
time in days (range of individual animal deaths); % ILS, percent increase
in life span, calculated 100(T/C - 1), where T and C are median survival
times of treated and control animals; surv, number of surviving mice/tota

B16 melanoma = assay: In vivo antitumor activity against B16 melanoma; set-up: species or system BDF1 mice; conditions: for % ILS / surv (survivors on day 65/total injected) / MST (range): at optimal dose; for MST (range): control 29 (20-48); for optimal dose: ip, days 1, 5, 9
Protocol: AMD-OZL analogues 9a and 10a were about as active as AMD and 7-hydroxy-AMD. The potencies of these analogues are reduced in comparison to that of AMD; their optimal doses were higher than that of AMD.
^a 0.2 mL of 1:5 (weight/volume) brei of B16 melanoma implanted
ip on day 0 in groups of nine BDF1 mice. Drugs administered ip.
^b MST (range) median survival time in days (range of individual
^c % ILS (surv), percent increase in lifespan (survivors on day

[3] = molecular target: T1, NADPH cytochrome P-450 reductase (rat liver microsomes) (Rattus norvegicus, UniProt P00388); assay: Stimulation of NADPH oxidation in rat hepatic microsomal incubations; conditions: for NADPH oxid: 340 nm, 37° C., phenobarbital induced microsomes, mean ± standard error of triplicate, basal 9.11 ± 0.30; for percentage stimulation of NADPH oxidation over basal rate: (drug-stimulated rate - basal rate)/basal rate × 100
T1 sequence (P00388 1-678): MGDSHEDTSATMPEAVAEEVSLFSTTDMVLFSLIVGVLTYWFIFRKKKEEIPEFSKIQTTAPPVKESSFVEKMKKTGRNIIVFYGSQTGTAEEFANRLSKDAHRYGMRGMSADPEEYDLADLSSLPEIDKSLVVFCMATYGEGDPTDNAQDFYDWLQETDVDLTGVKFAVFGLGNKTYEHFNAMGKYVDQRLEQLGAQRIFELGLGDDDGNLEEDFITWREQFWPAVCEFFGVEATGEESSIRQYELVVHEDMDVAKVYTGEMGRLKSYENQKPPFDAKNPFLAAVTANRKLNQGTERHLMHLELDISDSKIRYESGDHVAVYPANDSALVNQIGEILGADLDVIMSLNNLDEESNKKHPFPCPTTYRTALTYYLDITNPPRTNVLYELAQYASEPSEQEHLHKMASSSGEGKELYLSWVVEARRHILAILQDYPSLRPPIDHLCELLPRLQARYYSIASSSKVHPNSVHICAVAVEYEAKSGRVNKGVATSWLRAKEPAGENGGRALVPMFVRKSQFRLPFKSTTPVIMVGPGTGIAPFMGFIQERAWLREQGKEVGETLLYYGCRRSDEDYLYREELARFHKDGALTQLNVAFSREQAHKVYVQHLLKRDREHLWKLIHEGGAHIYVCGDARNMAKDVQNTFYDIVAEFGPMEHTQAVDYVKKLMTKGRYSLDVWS

rat hepatic microsomes = assay: Stimulation of adrenochrome formation (superoxide generation) in rat hepatic microsomal incubations; conditions: for adrenochrome formation: 480 nm, 37° C., no more than 100 μM drug, basal 2.11 ± 0.11; for adrenochrome formation / percentage stimulation of adrenochrome formation over basal rate: no SOD; for adrenochrome formation in presence of SOD: SOD (superoxide dismutase) 5 μg/mL added

| SMILES | Percent isolated: "tissue" bound ([1]; rat liver microsomes (M), 6 hr) [%] | Percent isolated: protein conjugates ([1]; rat liver microsomes (M), 6 hr) [%] | Percent isolated: unidentified metabolite ([1]; rat liver microsomes (M), 6 hr) [%] | Percent isolated: unconverted ([1]; rat liver microsomes (M), 6 hr) [%] | surv (surviving mice/total mice at 60 days) [2] | % ILS [2] [%] | MST (range) [2] | optimal dose [2] [μg/kg per inj] | % ILS (B16 melanoma) [%] | surv (survivors on day 65/total injected) (B16 melanoma) | MST (range) (B16 melanoma) | optimal dose (B16 melanoma) [μg/kg per inj] | NADPH oxid [3] | percentage stimulation of NADPH oxidation over basal rate [3] [%] | adrenochrome formation (rat hepatic microsomes) | adrenochrome formation in presence of SOD (rat hepatic microsomes) | percentage stimulation of adrenochrome formation over basal rate (rat hepatic microsomes) [%] | further results |
| --- | --- | --- | --- | --- | --- | --- | --- | --- | --- | --- | --- | --- | --- | --- | --- | --- | --- | --- |
| Cc1nc2c(C(=O)NC3C(=O)NC(C(C)C)C(=O)N4CCCC4C(=O)N(C)CC(=O)N(C)C(C(C)C)C(=O)OC3C)c3nc4c(C(=O)NC5C(=O)NC(C(C)C)C(=O)N6CCCC6C(=O)N(C)CC(=O)N(C)C(C(C)C)C(=O)OC5C)c(N)c(=O)c(C)c-4oc3c(C)c2o1 [7a, 7-Amino-2,9,11-trimethyl-8H-8-oxooxazolo [4,5-b]phenoxazine 4,6-bis[carbonyl-L-threonyl-D-valyl-L-prolylsarcosyl-L-N-methylvaline-(threonine hydroxyl)] lactone] | 3.7 | 3.5 | 8.5 | 21 | 3/8 | 277 | 42.5 (39-43) days | 450.0 | 90 | 3/9 | 55 (33-57) days | 300 | 21.3 ± 1.93 nmol min^-1 (mg of protein)^-1 | 134 | 6.04 ± 0.19 nmol min^-1 (mg of protein)^-1 | inhibited | 186 | Percent metabolite isolated: 4a glucuronide and/or sulfate ([1]; rat liver microsomes (M), 6 hr): nil; Percent metabolite isolated: "symmetrical" AMD (4a) ([1]; rat liver microsomes (M), 6 hr): 62.5% |
| Cc1nc2c(C(=O)NC3C(=O)NC(C(C)C)C(=O)N4CCCC4C(=O)N(C)CC(=O)N(C)C(C(C)C)C(=O)OC3C)c3nc4c(C(=O)NC5C(=O)NC(C(C)C)C(=O)N6CCCC6C(=O)N(C)CC(=O)N(C)C(C(C)C)C(=O)OC5C)cc(=O)c(C)c-4oc3c(C)c2o1 (stereo not drawn) [9a] | 5.5 | 9.5 | 6 | 38.5 | 0/0 | 164 | 29.0 (19-58) days | 1200.0 | 55 | 1/9 | 45 (32-55) days | 750 | 19.1 ± 1.70 nmol min^-1 (mg of protein)^-1 | 110 | 4.36 ± 0.21 nmol min^-1 (mg of protein)^-1 | inhibited | 106 | Percent metabolite isolated: 2a glucuronide and/or sulfate ([1]; rat liver microsomes (M), 6 hr): nil; Percent metabolite isolated: 7-hydroxy-AMD (2a) ([1]; rat liver microsomes (M), 6 hr): 40.5% |
| Cc1c2oc3c(C)ccc(C(=O)N[C@@H]4C(=O)N[C@H](C(C)C)C(=O)N5CCC[C@H]5C(=O)N(C)CC(=O)N(C)[C@@H](C(C)C)C(=O)O[C@@H]4C)c3nc-2c(C(=O)N[C@@H]2C(=O)N[C@H](C(C)C)C(=O)N3CCC[C@H]3C(=O)N(C)CC(=O)N(C)[C@@H](C(C)C)C(=O)O[C@@H]2C)c(N)c1=O [AMD, Actinomycin D] (I: T[dV]P[Sar][NMeV] / II: T[dV]P[Sar][NMeV]; ester I:1-I:C, II:1-II:C; linker I:N-II:N via Actinocin(9to1)) |  |  |  | 100 | 1/8 | 136 | 26.0 (16-37) days | 300.0 | 48 | 2/9 | 43 (36-54) days | 250 | 10.01 ± 0.90 nmol min^-1 (mg of protein)^-1 | 9.9 | 2.29 ± 0.33 nmol min^-1 (mg of protein)^-1 | inhibited | 8.5 | formation of metabolite or conjugate ([1]; tumor cell homogenate and rat liver microsomes): did not form any detectable metabolite or conjugate |
| Cc1c2oc3c(C)c(O)c(N)c(C(=O)NC4C(=O)NC(C(C)C)C(=O)N5CCCC5C(=O)N(C)CC(=O)N(C)C(C(C)C)C(=O)OC4C)c3nc-2c(C(=O)NC2C(=O)NC(C(C)C)C(=O)N3CCCC3C(=O)N(C)CC(=O)N(C)C(C(C)C)C(=O)OC2C)c(N)c1=O (stereo not drawn) [4a, 7-Hydroxy-8-amino-actinomycin D] |  |  |  |  | 4/8 | 382 | 52.0 (48-55) days | 600.0 | 96 | 4/9 | 57 (33-61) days | 300 | 64.3 ± 2.11 nmol min^-1 (mg of protein)^-1 | 606 | 19.3 ± 1.04 nmol min^-1 (mg of protein)^-1 | inhibited | 815 |  |
